Experimental data published in patent US12427128B2, “Sensorineural hair cell differentiation” (Massachusetts Eye and Ear Infirmary, priority 2014, dated 2025).

Legend:
[1] = test system: organ of Corti explants; test: Hair cell number in organ of Corti explants from Atoh1-GFP mice; format: cell-based, mouse; conditions: for new hair cells in organ of Corti explants: P1-P2 explants, 48 h
Description: In this example, modulation of Pax2 and Sox2 expression in the differentiating inner ear cells included reducing Sox2 expression levels while increasing Pax2 expression level. Sox2 expression was modulated using DAFT (Jeon et al., j. Neurosci., 31:8351-8358 (2011)). Pax2 expression was modulated using FGF2 (Adamska et al., Mech. Dev., 109:303-313 (2001); Mansukhani et al., J. Cell. Biol., 168:1065-1076 (2005)). DAPT was used to decrease Sox2 and FGF2 to activate Pax2 expression in inner ear stein cells (see FIG. 12A). 4th-5th generation spheres or OC explants (P1-P2) were plated in 4-well plates (Greiner) on round 10 mm glass coverslips coated with poly-L-lysine (Cultrex) and attachment took place overnight in 10% FBS/DMEM-high glucose (GIBCO). Attachment was ensured with microscopic inspection and the medium was changed to serum-free DMEM-high glucose/F12 (mixed 1:1, GIBCO) and N2 and B27 (Invitrogen). Spheres were differentiated for 3, 7 or 10 d. For treatment, either DAFT (2.5 μM) or FGF (20 ng/ml) or control medium containing only DMSO (0.1%) were applied for 7d on spheres and 48 h on OC explants. Cells were harvested and further analyzed by immunohistochemistry. Axiovision 4.3 was used for data acquisition and the number of cells was quantified with Metamorph software. Cell counts were expressed as mean±standard deviation. An average of 1,000 cells were counted for spheres or 100 μm for OC explants. Origin software was used for statistical evaluation. Cell detection techniques are described in the Examples above.
Samples were obtained and detected using methods described above. Organ of Corti explants (P1-P2) from Atoh1-GFP mice were contacted with DAPT, FGF2, or a combination of both for 48 h. Hair cell number was then assessed.

[2] = test system: Atoh1; test: Atoh1 expression by quantitative RT-PCR in OC-1 cells; format: cell-based, mouse; conditions: OC-1 cells treated with HDAC inhibitors
Protocol: Atoh1 levels were measured in vitro in OC-1 cells or spheres by quantitative RT-PCR. For RT-PCR. total RNA was extracted from OC-1 cells or spheres treated with RAPT, FGF2, or DART and RNAi with the RiNeasy Maxi Kit (Qiagen) according to the manufacturer's instructions. RNA was denatured at 65° C. for 5 min. For reverse transcription, ImProm II (Promega) was used with random hexamers. Reverse transcription conditions were 25° C. for 5 min followed by 42° C. for 60 min. Reactions were terminated at 70° C. for 15 min. c: ANAs were mixed with Platinum quantitative PCR Supermix ROX with UDG (Invitrogen) and primers for Atoh1, Pax2 or Sox2 (ABI) according to the manufacturer's instructions. Gene expression was measured relative to 18S RNA. Samples were analyzed in 96 well plates in triplicate by quantitative PCR (Applied Biosystems 7900HT) using the following conditions: initial denaturation at 95° C. for 2 min, denaturation at 95° C. for 40 s and annealing/extension at 60′ C for 35 s for 45 cycles.
To address whether interaction with DNA-binding co-factors influenced bound histones at the Atoh1 locus, drugs that block histone modifications were used.

Molecule | new hair cells in organ of Corti explants [1] | numbers of hair cells ([1]; postnatal explants, DAPT with control siRNA) | expression of Atoh1, qRT-PCR relative to 18S RNA [2]
C[C@H](NC(=O)Cc1cc(F)cc(F)c1)C(=O)N[C@H](C(=O)OC(C)(C)C)c1ccccc1 [DAPT] | additional outer hair cells were seen in the apex | Increased numbers of hair cells | –
CCCC(CCC)C(=O)O [VPA, valproic acid] | – | – | increased expression of Atoh1
FGF2: growth factor used to activate Pax2 expression in inner ear stem cells; 20 ng/ml | additional outer hair cells were seen in the apex | – | –
CC(/C=C/C(=O)NO)=C\[C@@H](C)C(=O)c1ccc(N(C)C)cc1 [TSA, Trichostatin A] | – | – | increased expression of Atoh1
